Reference: publication PMC8733726, “Dioctanoyl Ultrashort Tetrabasic β-Peptides Sensitize Multidrug-Resistant Gram-Negative Bacteria to Novobiocin and Rifampicin” (Frontiers in Microbiology, 2021)
Values after ≈ are worked out from the molar mass of the structure shown. Like-named read-outs stand apart in the source and are kept apart here.

Assays:
[1] = Cell viability assay; format: cell-based; settings: human
Description: (§1) Cell viability assay was performed essentially as previously described ([[…] et al., 2019]). […] The cells were detached with trypsin and equal numbers of cells (8,000 cells in 50 μL) were dispersed into five rows of each column in 96-well plate; the remaining three rows of each column, designated as blanks, received 50 μL of the media without cells. After 24 h incubation, aliquots of 50 μL of dUSTBβP 3 at varying concentrations were added to each well and incubated for 48 h. […] Values from the wells without cells (blank wells) were subtracted from the corresponding sample wells and cell viability values of the treated samples relative to the vehicle controls set to 100% was determined. […] The results represent the mean ± SD of two independent experiments with five samples per experiment. […] Colistin was used as a negative control and doxorubicin, an anticancer drug, was used as a positive control.

[2] = in vitro; format: cell-based; settings: human
Description: as §1

[3] = tested on: E. coli ATCC 25922; format: cell-based, Escherichia coli; settings: not told
Description: (§2) The ability of dUSTBβP 3 to permeabilize the OM of Acinetobacter baumannii ATCC 17978 and Escherichia coli ATCC 25922 was assessed using 1-N-phenylnaphthylamine (NPN) as previously described with minor modifications ([Yang et al., 2017]; [Akhoundsadegh et al., 2019]). Overnight grown culture was subcultured (1 in 100) in fresh LB broth and grown to a mid-logarithmic phase (OD600 = 0.4–0.6). […] NPN (10 μM final concentration) was added to a black 96-well plate containing the cell culture and incubated in 5 mM HEPES (pH 7.2) supplemented with 5 mM glucose and 5 μM carbonyl cyanide 3-chlorophenylhydrazone at room temperature for 30 min in darkness. Varying concentrations of compound were added onto the suspension, and the resulting change in NPN fluorescence was measured continuously (every 30 s) on a SpectraMax M2 microplate reader (Molecular Devices, United States) at an excitation wavelength of 350 nm and an emission wavelength of 420 nm. Cells with NPN and the OM permeabilizer PMBN served as a positive control, while cells with NPN alone served as a negative control. Three replicates were conducted, and the data were corrected for any background fluorescence.

[4] = tested on: A. baumannii ATCC 17978; format: cell-based, Acinetobacter baumannii; settings: not told
Description: as §2

[5] = tested on: MDR K. pneumoniae; format: cell-based, Klebsiella pneumoniae; settings: for MICantibiotic: antibiotic alone
Description: (§3) The adjuvant activities of dUSTBβPs were evaluated using checkerboard assay as previously described ([Berry et al., 2019]). Overnight-grown bacterial culture diluted in saline to 0.5 McFarland turbidity was successively diluted 1:50 in MHB to achieve a final concentration of 5 × 10^5 CFU/mL for inoculation. The antibiotic and adjuvant were serially diluted 2-fold along the x-axis and y-axis, respectively, resulting in varying concentrations of both agents in each well. Subsequently, the 96-well plate was incubated with equal volumes of bacterial inoculum at 37°C for 18 h. Confirmation of turbidity was done using an EMax Plus microplate reader (Molecular Devices, United States) at a wavelength of 590 nm. Wells comprising MHB alone or in the presence of bacterial cells were used as negative or positive controls, respectively. Fractional inhibitory concentration index (FICI) is determined by adding the FICs of both antibiotic and adjuvant. The FIC of the antibiotic is calculated by dividing the MIC of the antibiotic in the presence of the adjuvant by the MIC of the antibiotic alone. Similarly, the FIC of the adjuvant is calculated by dividing the MIC of the adjuvant in the presence of the antibiotic by the MIC of the adjuvant alone. FICI ≤ 0.5, 0.5 < x ≤ 4, and >4 were deemed synergistic, additive, and antagonistic, respectively ([Meletiadis et al., 2010]).

[6] = in vitro; settings: human, plasma
Description: Stability of dUSTBβP 3 was evaluated in human plasma. […] The supernatant was analyzed by HPLC-tandem mass spectrometry using selected reaction monitoring. The % compound remaining was determined by comparing peak areas at different time points to time zero. Assuming first-order kinetics, the half-life was extrapolated from the slope of the initial linear range of the logarithmic curve of compound remaining over time. Experiments were performed in duplicates, and the reference compounds include propantheline and propoxycaine.

[7] = tested on: wild-type E. coli ATCC 25922; test: microbe, parasite or virus in culture; format: cell-based, Escherichia coli
Method in brief: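 Antibiotic and adjuvant were serially diluted 2-fold against each other in MHB, inoculated at 5 × 10^5 CFU/mL and incubated at 37°C for 18 h. Growth was read as turbidity at 590 nm. FICI was the sum of each agent's combination MIC divided by its MIC alone; ≤ 0.5 counted as synergy.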

[8] = in vitro; format: cell-based; settings: human; remark: listed apart in the source
Description: The degree of hemolysis induced by dUSTBβPs was determined by the amount of hemoglobin released from human erythrocytes upon incubation. Fresh human blood supplied by a commercial vendor was obtained from normal healthy volunteers following informed consent. The agent of interest was serially diluted in vehicle consisting of phosphate-buffered saline (PBS), saline, 5% glucose, or equivalents. The samples were incubated with gentle mixing at 37°C for 45 min and were subsequently centrifuged. The supernatant (plasma layer) was removed and centrifuged once more to completely pellet the cells. The plasma layer was diluted with Drabkin’s reagent and analyzed at a wavelength of 540 nm. Experiments were conducted in triplicates, and a calibration curve prepared by diluting blood (after addition of vehicle) was used to quantitate heme release. The vehicle or Triton X-100 were used as negative or positive controls, respectively.

[9] = tested on: A. baumannii ATCC 17978; format: cell-based, Acinetobacter baumannii; settings: ATCC 17978, 18 h
Description: (§4) The in vitro antibacterial activities of dUSTBβPs were evaluated using microbroth dilution susceptibility test, in accordance with the Clinical and Laboratory Standards Institute (CLSI) guidelines ([Clinical and Laboratory Standards Institute, 2019]). Overnight-grown bacterial culture diluted in saline to 0.5 McFarland turbidity was successively diluted 1:50 in Mueller-Hinton broth (MHB) to achieve a final concentration of 5 × 10^5 colony forming units (CFU)/mL for inoculation. The agents were serially diluted 2-fold in MHB on a 96-well plate; mixed with bacterial inoculum of equal volumes, and incubated at 37°C for 18 h. Antibacterial activity was determined by the minimum inhibitory concentration (MIC), which is the lowest concentration of agent required for inhibition of visible bacterial growth in the form of turbidity. Confirmation of turbidity was done using an EMax Plus microplate reader (Molecular Devices, United States) at a wavelength of 590 nm. Wells comprising MHB alone or MHB inoculated with bacteria were used as negative or positive controls, respectively.

[10] = tested on: MDR clinical isolates of A. baumannii; format: cell-based, Acinetobacter baumannii; settings: for MICantibiotic: antibiotic alone
Description: as §3

[11] = tested on: E. coli ATCC 25922; format: cell-based, Escherichia coli; settings: ATCC 25922, 18 h
Description: as §4

[12] = tested on: P. aeruginosa PAO1; format: cell-based, Pseudomonas aeruginosa; settings: PAO1, 18 h
Description: as §4

[13] = tested on: wild-type P. aeruginosa PAO1; test: microbe, parasite or virus in culture; format: cell-based, Pseudomonas aeruginosa; settings: PAO1
Method in brief: (§5)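 Checkerboard in MHB with 5 × 10^5 CFU/mL inoculum, antibiotic and adjuvant each serially 2-fold diluted on crossed axes. Growth read as turbidity at 590 nm; FICI is the sum of each agent's MIC in combination divided by its MIC alone.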

[14] = tested on: MDR A. baumannii 110193; test: Time-kill assay; format: cell-based, Acinetobacter baumannii; settings: 32 μg/mL novobiocin or 0.5 μg/mL rifampicin alone
Description: (§6) Overnight-grown bacterial culture diluted in PBS to 0.5 McFarland turbidity was successively diluted 1:50 in lysogeny broth (LB). Cell cultures in the presence of dUSTBβP 3, novobiocin, or rifampicin, or combinations of adjuvant and antibiotic were incubated at 37°C. At designated intervals, 100 μL aliquots acquired from each culture tube were serially diluted in PBS and plated on LB agar plates.

[15] = tested on: wild-type A. baumannii ATCC 17978; test: Time-kill assay; format: cell-based, Acinetobacter baumannii; settings: 32 μg/mL novobiocin or 0.5 μg/mL rifampicin alone
Description: as §6

[16] = tested on: MDR E. cloacae; test: Checkerboard assay, MDR clinical isolates; format: cell-based, Enterobacter cloacae; settings: antibiotic alone
Description: as §3

[17] = tested on: MDR E. coli; format: cell-based, Escherichia coli; settings: antibiotic alone
Description: as §3

[18] = tested on: MDR clinical isolates of P. aeruginosa; test: Checkerboard assay, MDR clinical isolates; format: cell-based, Pseudomonas aeruginosa; settings: antibiotic alone
Description: as §3

[19] = tested on: wild-type A. baumannii ATCC 17978; test: Checkerboard assay; format: cell-based, Acinetobacter baumannii; settings: ATCC 17978
Method in brief: as §5

[20] = ref Chen and Lu, 2020; cited from earlier work
[21] = antibiotic with dUSTBβP 3 at 8 μg/mL

COc1cccc2c1C(=O)c1c(O)c3c(c(O)c1C2=O)C[C@@](O)(C(=O)CO)C[C@@H]3O[C@H]1C[C@H](N)[C@H](O)[C@H](C)O1 [doxorubicin]
CC50 at 48 h [1]: 0.032 µM | viability at 48 h, 1 µM [2]: 16.6 ± 2.3%

polymyxin B nonapeptide [PMBN]
OM permeabilization, NPN fluorescence [3]: increased fluorescence of NPN | OM permeabilization, NPN fluorescence [4]: increased fluorescence of NPN

CCCCCCCC(=O)NC(CCCNC(=N)N)CC(=O)NCCCN(CCCNC(=O)CC(CCCNC(=N)N)NC(=O)CCCCCCC)CC(=O)NC(CCCNC(=N)N)CC(N)=O (centres unmarked) [dUSTBβP 3]
CC50 at 48 h [1]: 101 µM | FICI ([5]; MDR, 18 h): < 0.156 | half-life at 1 μM [6]: 10.4 ± 3.7 h | remaining at 2 h, 1 μM [6]: 86.8 ± 3.7% | OM permeabilization, NPN fluorescence [3]: dose-dependently permeabilizes the OM | FICI ([7]; ATCC 25922, 18 h): 0.064 | viability at 48 h, 125 µM [2]: 86.4 ± 8.7% | hemolysis at 45 min, 1.5625 µM [8]: 3.23 ± 0.08% | hemolysis at 45 min, 3.125 µM [8]: 3.32 ± 0.16% | hemolysis at 45 min, 6.25 µM [8]: 3.18 ± 0.05% | hemolysis at 45 min, 12.5 µM [8]: 3.28 ± 0.12% | hemolysis at 45 min, 25 µM [8]: 3.35 ± 0.09% | hemolysis at 45 min, 50 µM [8]: 3.43 ± 0.49% | hemolysis at 45 min, 100 µM [8]: 4.17 ± 1.29% | hemolysis at 45 min, 200 µM [8]: 4.59 ± 2.42% | OM permeabilization, NPN fluorescence [4]: dose-dependently permeabilizes the OM | MIC [9]: >128 µg/mL | MIC of compound alone ([10]; MDR clinical isolates of, 18 h): 16 µg/mL | MIC [11]: 128 µg/mL (≈ 135 µM) | MIC [12]: 128 µg/mL (≈ 135 µM)

CO[C@H]1/C=C/O[C@@]2(C)Oc3c(C)c(O)c4c(O)c(c(/C=N/N5CCN(C)CC5)c(O)c4c3C2=O)NC(=O)/C(C)=C\C=C\[C@H](C)[C@H](O)[C@@H](C)[C@@H](O)[C@@H](C)[C@H](OC(C)=O)[C@@H]1C [Rifampicin]
MICantibiotic [5]; 113250: 32 µg/mL | MICantibiotic [5]; 113254: 8 µg/mL | MICantibiotic [5]; 116381: > 256 µg/mL | MICantibiotic ([5]; 116381, listed as rifampicin): 512 µg/mL | MICantibiotic ([13]; antibiotic alone): 16 µg/mL | MICcombo [13, 21]: 0.25 µg/mL | MIC ([13]; Pseudomonas aeruginosa, 18 h, antibiotic alone (Supplementary Table 7), read-out: MICantibiotic): 16 µg/mL (≈ 19.4 µM) | Time-kill outcome [14]: Bacteriostatic | Time-kill outcome [15]: Bacteriostatic | MICantibiotic ([7]; ATCC 25922, antibiotic alone): 4 µg/mL | MICcombo ([7]; ATCC 25922, antibiotic with dUSTBβP 3 at 8 μg/mL): 0.008 µg/mL | MIC ([7]; Escherichia coli, ATCC25922, 18 h, ATCC 25922, antibiotic alone (Supplementary Table 7), read-out: MICantibiotic): 4 µg/mL | MICantibiotic [16]; 117029: 8 µg/mL | MICantibiotic [16]; 118564: 8 µg/mL | MICantibiotic [16]; 121187: 2 µg/mL | MICantibiotic [17]; 94393: 8 µg/mL | MICantibiotic [17]; 94474: 8 µg/mL | MICantibiotic [17]; 107115: 32 µg/mL | MICantibiotic ([18]; PA259-96196): 16 µg/mL | MICantibiotic ([18]; PA262-101856): 512 µg/mL | MICantibiotic ([18]; PA264-104354): 16 µg/mL | MICantibiotic ([18]; PA91433): 16 µg/mL | MICantibiotic ([18]; PA114228): 16 µg/mL | MICantibiotic ([19]; antibiotic alone): 2 µg/mL | MICcombo [19, 21]: 0.008 µg/mL | MIC ([19]; Acinetobacter baumannii, ATCC17978, 18 h, antibiotic alone (Supplementary Table 7), read-out: MICantibiotic): 2 µg/mL | MICantibiotic [10]; 92247: 2 µg/mL | MICantibiotic [10]; 110193: 1 µg/mL | MICantibiotic ([10]; AB027): 1 µg/mL | MICantibiotic ([10]; AB031): 1 µg/mL | MICantibiotic ([10]; LAC-4): 0.5 µg/mL

CCCCCCCCCCNCCN[C@@]1(C)C[C@H](O[C@H]2[C@H](Oc3c4cc5cc3Oc3ccc(cc3Cl)[C@@H](O)[C@@H](NC(=O)[C@@H](CC(C)C)NC)C(=O)N[C@@H](CC(N)=O)C(=O)N[C@H]5C(=O)N[C@H]3C(=O)N[C@H](C(=O)N[C@H](C(=O)O)c5cc(O)c(CNCP(=O)(O)O)c(O)c5-c5cc3ccc5O)[C@H](O)c3ccc(c(Cl)c3)O4)O[C@H](CO)[C@@H](O)[C@@H]2O)O[C@@H](C)[C@H]1O [telavancin]
In vivo elimination half-life [20]: 8 h
